Results as given in patent US11274106B2, “Topoisomerase inhibitors with antibacterial and anticancer activity” (THE BOARD OF TRUSTEES OF THE UNIVERSITY OF ILLINOIS, priority 2017, dated 2022).
≈ marks a conversion by molar mass, not a printed value. Entries after “also recorded” stand apart in the source; their conditions may differ.

Tests used:
[1] = test system: MDA-MB-231 triple negative breast cancer cells; experiment: Antiproliferative SRB assay, MDA-MB-231; type: cell-based; details: SRB assay; for IC50: Homo sapiens, MDA-MB-231, 72 h, 72 hour compound exposure, mean ± SEM, read-out: MDA-MB-231 IC50
Method: FIG. 1. […] Cell death measured by SRB assay after 72 hour of compound exposure (n≥3 biological replicates, error bars show SEM). IC50 values given as mean±SEM from ≥3 biological replicates.
To investigate the feasibility of developing a class of antitumor antibiotics based upon the DNM scaffold, the ability of the DNM to exert an antiproliferative effect against MDA-MB-231 breast cancer cells was evaluated.

[2] = test system: E. coli; experiment: Antibacterial MIC, microbroth dilution, E. coli; type: cell-based; details: Escherichia coli
Method: (§1) To investigate this possibility, the antibacterial effects of the DNM derivatives was assessed against strains of E. coli, S. aureus, and MRSA using the microbroth dilution method (Table 2).

[3] = test system: S. aureus; experiment: Antibacterial MIC, microbroth dilution, S. aureus; type: cell-based; details: Staphylococcus aureus
Method: as §1

[4] = test system: MRSA; experiment: Antibacterial MIC, microbroth dilution, MRSA; type: cell-based, S. aureus; details: for MIC: Staphylococcus aureus, MRSA, microbroth dilution
Method: as §1

SMILES | IC50 [1] [nM] | MIC [2] [µg/mL] | MIC [3] [µg/mL] | MIC [4] [µg/mL] | Antiproliferative effect against MDA-MB-231 cells ([1]; FIG. 1, 72 hour, listed as 6DNM) | Activity against MRSA [4]
Cc1cc(=O)n(C)c2c3c4c(cc12)c(C)cc(=O)n4CO3 [Compound 1] | 1100 ± 200 | > 16 | 2 (≈ 7.08 µM) | 0.03 (≈ 0.106 µM) |  | 
CCOC(=O)C1Oc2c3c(cc4c(C)cc(=O)n1c24)c(C)cc(=O)n3C (centres unmarked) [Compound 3] | > 10000 | > 16 | > 16 | 0.5 (≈ 1.41 µM) |  | remains effective against MRSA
Cc1cc(=O)n(C)c2c3c4c(cc12)c(C)cc(=O)n4C(C(=O)O)O3 (centres unmarked) [Compound 5] | 3600 ± 600 | > 32 | > 32 | 2 (≈ 6.13 µM) |  | 
Cc1cc(=O)n(C)c2c3c4c(cc12)c(C)cc(=O)n4C(CC(=O)O)CO3 (centres unmarked) [Compound 6] | > 10000 | > 32 | > 16 | 16 (≈ 45.2 µM) |  | 
Cc1cc(=O)n(C)c2c3c4c(cc12)c(C)cc(=O)n4C(CO)CO3 (centres unmarked) [Compound 7] | > 10000 | > 16 | 16 (≈ 49 µM) | 0.25 (≈ 0.766 µM) |  | remains effective against MRSA
CC(=O)NCC1COc2c3c(cc4c(C)cc(=O)n1c24)c(C)cc(=O)n3C (centres unmarked) [Compound 8] | > 10000 | > 16 | 32 (≈ 87.1 µM) | 0.5 (≈ 1.36 µM) |  | 
Cc1cc(=O)n(CCN)c2c3c4c(cc12)c(C)cc(=O)n4CCO3 [Compound 12] | 220 ± 60 | 4 (≈ 12.3 µM) | 4 (≈ 12.3 µM) |  |  | 

More lines, main results first:

IC50 [1] [nM] | MIC [2] [µg/mL] | MIC [3] [µg/mL] | MIC [4] [µg/mL] | SMILES | Antiproliferative effect against MDA-MB-231 cells ([1]; FIG. 1, 72 hour, listed as 6DNM) | Activity against MRSA [4]
730 ± 90 | > 16 | 1 (≈ 3.37 µM) | 0.06 (≈ 0.202 µM) | Cc1cc(=O)n(C)c2c3c4c(cc12)c(C)cc(=O)n4CCO3 [Compound 2] | produces quantitative cell death; also recorded: equipotent to the clinical trial compound vosoraxin | 
8300 ± 700 | > 16 | > 16 | 4 (≈ 12.3 µM) | Cc1cc(=O)n(C)c2c3c4c(cc12)c(C)cc(=O)n4C(C(N)=O)O3 (centres unmarked) [Compound 4] |  | 
1600 ± 200 | > 32 | 4 (≈ 14.2 µM) |  | Cc1cc(=O)[nH]c2c3c4c(cc12)c(C)cc(=O)n4CCO3 [Compound 10] |  | 
860 ± 70 | 2 (≈ 6.42 µM) | 4 (≈ 12.8 µM) |  | Cc1cc(=O)[nH]c2c3c4c(cc12)c(C)cc(=O)n4C(CN)CO3 (centres unmarked) [Compound 11] |  | 
